Assay results: publication PMC4503722, “Novel Phenotypic Outcomes Identified for a Public Collection of Approved Drugs from a Publicly Accessible Panel of Assays” (PLoS ONE, 2015)
Read-outs that look alike come from different tables or passages of the source.

How the values were obtained:
Assay in all cases: cells
[1] = system: endothelial tube formation in co-cultures of ECFCs and ADSCs treated with VEGF; format: cell-based, human
[2] = system: nuclear β-catenin in C2C12 cells; format: cell-based
INS-1E cells = format: cell-based, rat
NCI-H716 cells = format: cell-based, Human
HeLa cells = format: cell-based; details: HeLa, read-out: CellCycle G2/M
DLD-1 = format: cell-based
SW480 = format: cell-based
HCT116 = format: cell-based
[3] = system: HCT116 cells treated with a GSK3β inhibitor; format: cell-based
Colo320 = format: cell-based
HT-29 = format: cell-based; details: read-out: Basal_Viability ATP HT-29
SNU-C1 = format: cell-based
RKO = format: cell-based; details: RKO, read-out: Basal_Viability ATP RKO
[4] = Homo sapiens, SNU-C1, read-out: Basal_Viability ATP SNU-C1

## Cc1nc2ccccc2n1Cc1ccc(Cl)cc1 [1-P-chlorobenzyl-2-methylbenzimidazole]
[1]; IC50 / EC50; endothelial tube area, ADSC/ECFC co-culture; read-out: Anti-Angiogenesis
  IC50: 7.38 µM
[2]; IC50 / EC50, C2C12 beta-catenin translocation, read-out: Wnt Pathway
  EC50: > 10 µM
INS-1E cells; IC50 / EC50; INS-1E; read-out: Insulin Secretion
  EC50: > 10 µM
NCI-H716 cells; IC50 / EC50; NCI-H716; read-out: GLP 1 Secretion
  EC50: > 10 µM
HeLa cells; IC50 / EC50
  EC50: > 10 µM
DLD-1; basal, read-out: Basal_Viability ATP DLD-1
  IC50: > 20 µM
SW480; basal, read-out: Basal_Viability ATP SW480
  IC50: 5.33 µM
HCT116; basal, read-out: Basal_Viability ATP HCT116
  IC50: 1.22 µM
[3]; GSK3b inhibitor pretreated, read-out: GSK3b inh pretreated_Viability ATP HCT116
  IC50: 12 µM
Colo320; basal, read-out: Basal_Viability ATP Colo 320
  IC50: 15.2 µM
HT-29; basal
  IC50: > 20 µM
SNU-C1; basal, read-out: Basal_Viability ATP SNU-C1
  IC50: > 20 µM

## O=c1[nH]cc(F)c(=O)[nH]1 [Fluorouracil]
[1]; Homo sapiens; read-out: Anti-Angiogenesis
  IC50: > 10 µM
[2]; Mus musculus, C2C12, S2 Table, module primary assay, 20 / 20.1 codes per legend, read-out: Wnt Pathway
  EC50: > 10 µM
INS-1E cells; Rattus norvegicus, INS-1E; read-out: Insulin Secretion
  EC50: > 10 µM
NCI-H716 cells; Homo sapiens, NCI-H716; read-out: GLP 1 Secretion
  EC50: > 10 µM
HeLa cells; Homo sapiens, S2 Table, 20 = no response at highest concentration
  EC50: > 10 µM
DLD-1; Homo sapiens, DLD-1, basal, DLD-1, read-out: Basal_Viability ATP DLD-1
  IC50: > 20 µM
SW480; Homo sapiens, SW480, basal, SW480, read-out: Basal_Viability ATP SW480
  IC50: > 20 µM
Colo320; Homo sapiens, basal, Colo 320, read-out: Basal_Viability ATP Colo 320
  IC50: > 20 µM
HT-29; Homo sapiens, basal, HT-29
  IC50: > 20 µM
RKO; Homo sapiens, basal
  IC50: > 20 µM
SNU-C1; Homo sapiens, SNU-C1, basal, SNU-C1, read-out: Basal_Viability ATP SNU-C1
  IC50: > 20 µM

## N=C(N)NN=C(/C=C/c1ccc([N+](=O)[O-])o1)/C=C/c1ccc([N+](=O)[O-])o1 [Nitrovin]
[1]; S2 Table; module primary assay; 20 = no response at highest concentration, 20.1 = inactive in single concentration testing; read-out: Anti-Angiogenesis
  IC50: > 10 µM
[2]; read-out: Wnt Pathway
  EC50: 0.372 µM
INS-1E cells; S2 Table; module primary assay; 20 / 20.1 codes per legend; read-out: Insulin Secretion
  EC50: > 10 µM
NCI-H716 cells; S2 Table; module primary assay; 20 / 20.1 codes per legend; read-out: GLP 1 Secretion
  EC50: > 10 µM
HeLa cells; S2 Table, 20 = no response at highest concentration
  EC50: > 10 µM
DLD-1; basal, DLD-1, read-out: Basal_Viability ATP DLD-1
  IC50: > 20 µM
SW480; basal, SW480, read-out: Basal_Viability ATP SW480
  IC50: 0.0076 µM
HCT116; basal, HCT116, read-out: Basal_Viability ATP HCT116
  IC50: 0.136 µM
[3]; HCT116 pretreated with GSK3b inhibitor, read-out: GSK3b inh pretreated_Viability ATP HCT116
  IC50: 0.0237 µM
RKO; basal
  IC50: 0.0128 µM
SNU-C1; basal, SNU-C1, read-out: Basal_Viability ATP SNU-C1
  IC50: 1.35 µM

## COc1cc(NC(C)CCCN)c2ncccc2c1 (centres unmarked) [Primaquine]
[1]; Homo sapiens, read-out: Anti-Angiogenesis
  IC50: > 10 µM
[2]; Mus musculus, C2C12, read-out: Wnt Pathway
  EC50: > 10 µM
INS-1E cells; Rattus norvegicus, INS-1E, read-out: Insulin Secretion
  EC50: > 10 µM
NCI-H716 cells; Homo sapiens, NCI-H716, read-out: GLP 1 Secretion
  EC50: > 10 µM
HeLa cells; Homo sapiens
  EC50: > 10 µM
DLD-1; Homo sapiens, DLD-1, read-out: Basal_Viability ATP DLD-1
  IC50: > 20 µM
SW480; Homo sapiens, SW480, read-out: Basal_Viability ATP SW480
  IC50: > 20 µM
HCT116; Homo sapiens, HCT-116, read-out: Basal_Viability ATP HCT116
  IC50: 1.88 µM
[3]; Homo sapiens, HCT-116, read-out: GSK3b inh pretreated_Viability ATP HCT116
  IC50: > 20 µM
Colo320; Homo sapiens, COLO 320, read-out: Basal_Viability ATP Colo 320
  IC50: > 20 µM
RKO; Homo sapiens
  IC50: > 20 µM
SNU-C1; [4]
  IC50: > 20 µM

## CC(C)=CCNc1ncnc2c1ncn2[C@@H]1O[C@H](CO)[C@@H](O)[C@H]1O [Riboprine]
[1]; Homo sapiens, IC50 / EC50; endothelial tube area, ADSC/ECFC co-culture; read-out: Anti-Angiogenesis
  IC50: 2.66 µM
[2]; Mus musculus, C2C12, IC50 / EC50, C2C12 beta-catenin translocation, read-out: Wnt Pathway
  EC50: > 10 µM
INS-1E cells; Rattus norvegicus; IC50 / EC50; INS-1E; read-out: Insulin Secretion
  EC50: > 10 µM
NCI-H716 cells; Homo sapiens; IC50 / EC50; NCI-H716; read-out: GLP 1 Secretion
  EC50: > 10 µM
HeLa cells; Homo sapiens, IC50 / EC50
  EC50: > 10 µM
HT-29; Homo sapiens, HT-29
  IC50: > 20 µM
SNU-C1; [4]
  IC50: 9.01 µM
